From patent US20230113037A1 (Bayer Aktiengesellschaft, priority 2019, published 2023)
Values joined by “and” are separate entries in the source; they are usually repeats but may differ in a detail not shown here. Identical values can stand only once.

Tests used:
AHR [1] = biological target: T1, AHR (Homo sapiens, UniProt P35869); test: In vitro assay 1: antagonism in human cell line (AHR transactivation, firefly luciferase reporter, kynurenic acid prestimulated); format: cell-based; details: AHR Antagonism Human IC50 [M]
T1 construct: U87 MG glioblastoma cells (ATCC #HTB-14) endogenously expressing AHR; endogenous in cells; host or cells: U87 MG glioblastoma cells (ATCC #HTB-14)
T1 sequence (P35869 11-848): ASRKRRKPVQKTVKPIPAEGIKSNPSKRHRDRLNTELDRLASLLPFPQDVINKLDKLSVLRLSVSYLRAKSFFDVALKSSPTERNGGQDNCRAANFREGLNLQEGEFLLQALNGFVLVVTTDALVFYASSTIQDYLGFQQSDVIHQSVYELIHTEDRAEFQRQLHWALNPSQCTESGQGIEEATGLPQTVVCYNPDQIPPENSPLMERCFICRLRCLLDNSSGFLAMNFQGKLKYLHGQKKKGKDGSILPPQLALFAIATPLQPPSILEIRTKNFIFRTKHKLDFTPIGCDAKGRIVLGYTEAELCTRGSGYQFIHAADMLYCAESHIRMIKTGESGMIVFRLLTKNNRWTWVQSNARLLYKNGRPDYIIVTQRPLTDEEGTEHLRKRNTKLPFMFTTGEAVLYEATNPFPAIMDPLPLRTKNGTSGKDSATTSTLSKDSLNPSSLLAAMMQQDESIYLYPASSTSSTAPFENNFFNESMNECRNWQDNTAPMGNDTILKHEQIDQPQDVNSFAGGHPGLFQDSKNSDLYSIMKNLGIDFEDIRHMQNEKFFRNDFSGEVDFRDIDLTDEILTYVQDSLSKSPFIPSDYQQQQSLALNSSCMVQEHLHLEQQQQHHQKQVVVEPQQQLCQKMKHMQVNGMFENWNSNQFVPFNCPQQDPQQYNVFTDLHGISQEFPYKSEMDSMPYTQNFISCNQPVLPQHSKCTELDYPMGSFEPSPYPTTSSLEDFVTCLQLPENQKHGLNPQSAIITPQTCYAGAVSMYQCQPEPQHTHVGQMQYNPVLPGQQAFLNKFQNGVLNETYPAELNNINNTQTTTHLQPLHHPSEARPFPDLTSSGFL
Outline: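 U87 MG + DRE-firefly/constitutive-Renilla stable reporters; kynurenic acid prestim; dual-luc read; Renilla = tox; normalized vs pos/neg controls (pos: 150 μM KYNA + 5 μM staurosporine).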

AHR [2] = biological target: T2, AHR (Mus musculus, UniProt P30561); test: In vitro assay 3: antagonism in mouse cell line (AHR transactivation, firefly luciferase reporter, kynurenic acid prestimulated); format: cell-based; details: mouse Hepa 1c1c7 cells, 200 μM kynurenic acid, 20 hours, read-out: AHR Antagonism Mouse IC50
T2 sequence (P30561 1-848 P471L/N533S/M589L): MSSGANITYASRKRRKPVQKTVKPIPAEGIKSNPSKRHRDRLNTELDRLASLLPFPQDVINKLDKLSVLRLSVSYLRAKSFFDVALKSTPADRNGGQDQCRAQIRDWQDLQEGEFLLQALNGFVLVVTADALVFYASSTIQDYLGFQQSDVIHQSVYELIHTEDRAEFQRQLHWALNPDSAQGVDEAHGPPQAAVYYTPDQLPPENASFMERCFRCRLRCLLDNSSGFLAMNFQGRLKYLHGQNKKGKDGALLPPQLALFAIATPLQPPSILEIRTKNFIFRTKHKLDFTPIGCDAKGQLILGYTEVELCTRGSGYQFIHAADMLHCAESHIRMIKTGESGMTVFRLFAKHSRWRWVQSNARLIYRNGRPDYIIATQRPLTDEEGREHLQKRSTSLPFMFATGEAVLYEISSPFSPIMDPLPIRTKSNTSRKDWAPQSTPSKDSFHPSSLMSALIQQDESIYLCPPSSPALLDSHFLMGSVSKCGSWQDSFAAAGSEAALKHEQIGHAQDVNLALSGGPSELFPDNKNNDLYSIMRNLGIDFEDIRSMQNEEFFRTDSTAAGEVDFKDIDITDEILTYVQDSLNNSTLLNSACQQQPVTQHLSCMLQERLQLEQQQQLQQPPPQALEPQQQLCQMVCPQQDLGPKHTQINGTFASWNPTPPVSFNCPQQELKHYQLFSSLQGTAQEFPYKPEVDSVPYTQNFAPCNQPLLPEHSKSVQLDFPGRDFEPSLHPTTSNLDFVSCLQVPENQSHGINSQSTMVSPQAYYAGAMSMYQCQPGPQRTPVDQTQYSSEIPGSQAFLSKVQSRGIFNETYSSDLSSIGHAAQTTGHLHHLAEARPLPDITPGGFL
Outline: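 Mouse cells stably carrying a DRE-driven AHR-inducible firefly luciferase reporter were prestimulated with the endogenous agonist kynurenic acid before compound addition. Luciferase read by SteadyGlo; cells without kynurenic acid served as full-inhibition control, with normalization to positive and negative controls. Repeat tests reported as mean or median.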

SMILES	IC50 (AHR [1])	IC50 (AHR [2])
CCC[C@@H](Nc1nc2ccccc2c2nc(-c3cccc(OC(F)(F)F)c3)nn12)C(=O)NC [Example 316, N-methyl-N^2-{2-[3-(trifluoromethoxy)phenyl][1,2,4]triazolo[1,5-c]quinazolin-5-yl}-D-norvalinamide]	2.07e-08 M	3.76 nM
C[C@@H](Nc1nc2ccccc2c2nc(-c3cccc(OC(F)(F)F)c3)nn12)C(=O)NCCN(C)C [Example 325, N-[2-(dimethylamino)ethyl]-N^2-{2-[3-(trifluoromethoxy)phenyl][1,2,4]triazolo[1,5-c]quinazolin-5-yl}-D-alaninamide]	1.49e-05 M and 1.56e-05 M and > 2e-05 M	677 nM
NC(=O)[C@@H](CO)Nc1nc2ccccc2c2nc(-c3ccc(OC(F)(F)F)cc3)nn12 [Example 329, N^2-{2-[4-(trifluoromethoxy)phenyl][1,2,4]triazolo[1,5-c]quinazolin-5-yl}-D-serinamide]	5.94e-09 M	2.89 nM
COc1cscc1-c1nc2c3ccccc3nc(N[C@@H]3CCN(C)C3=O)n2n1 [Example 337, (3R)-3-{[2-(4-methoxythiophen-3-yl)[1,2,4]triazolo[1,5-c]quinazolin-5-yl]amino}-1-methylpyrrolidin-2-one]	1.71e-06 M	> 20000 nM
CC[C@@H](Nc1nc2ccccc2c2nc(-c3cscc3OC)nn12)C(N)=O [Example 338, (2R)-2-{[2-(4-methoxythiophen-3-yl)[1,2,4]triazolo[1,5-c]quinazolin-5-yl]amino}butanamide]	1.91e-07 M	53.9 nM
CCC[C@@H](Nc1nc2ccccc2c2nc(-c3cscc3OC)nn12)C(=O)NC [Example 339, N^2-[2-(4-methoxythiophen-3-yl)[1,2,4]triazolo[1,5-c]quinazolin-5-yl]-N-methyl-D-norvalinamide]	3.37e-07 M	169 nM
O=C1NCC[C@H]1Nc1nc2ccccc2c2nc(-c3ccsc3)nn12 [Example 342, (3R)-3-{[2-(thiophen-3-yl)[1,2,4]triazolo[1,5-c]quinazolin-5-yl]amino}pyrrolidin-2-one]	2.21e-07 M	175 nM
CC[C@@H](Nc1nc2ccccc2c2nc(-c3ccsc3)nn12)C(N)=O [Example 344]	3.57e-09 M	0.628 nM
CN1CC[C@@H](Nc2nc3ccccc3c3nc(-c4ccsc4)nn23)C1=O [Example 345, (3R)-1-methyl-3-{[2-(thiophen-3-yl)[1,2,4]triazolo[1,5-c]quinazolin-5-yl]amino}pyrrolidin-2-one]	1.24e-07 M	27 nM
Cc1sccc1-c1nc2c3ccccc3nc(N[C@@H]3CCCNC3=O)n2n1 [Example 348, (3R)-3-{[2-(2-methylthiophen-3-yl)[1,2,4]triazolo[1,5-c]quinazolin-5-yl]amino}piperidin-2-one]	7.76e-08 M	37.4 nM
Cc1sccc1-c1nc2c3ccccc3nc(N[C@@H]3CCNC3=O)n2n1 [Example 349, (3R)-3-{[2-(2-methylthiophen-3-yl)[1,2,4]triazolo[1,5-c]quinazolin-5-yl]amino}pyrrolidin-2-one]	5.16e-08 M	11.5 nM
Cc1sccc1-c1nc2c3ccccc3nc(N[C@@H]3CCN(C)C3=O)n2n1 [Example 350]	4.13e-08 M	3.59 nM

More lines, now with the values ahead:

IC50 (AHR [1])	IC50 (AHR [2])	SMILES
9.98e-08 M	60.7 nM	O=C1NCC[C@H]1Nc1nc2ccccc2c2nc(-c3cccc(OC(F)(F)F)c3)nn12 [Example 310, (3R)-3-({2-[3-(trifluoromethoxy)phenyl][1,2,4]triazolo[1,5-c]quinazolin-5-yl}amino)pyrrolidin-2-one]
1.36e-07 M	111 nM	O=C1NCCC[C@H]1Nc1nc2ccccc2c2nc(-c3cccc(OC(F)(F)F)c3)nn12 [Example 311, (3R)-3-({2-[3-(trifluoromethoxy)phenyl][1,2,4]triazolo[1,5-c]quinazolin-5-yl}amino)piperidin-2-one]
7.19e-08 M	22 nM	CN1CC[C@@H](Nc2nc3ccccc3c3nc(-c4cccc(OC(F)(F)F)c4)nn23)C1=O [Example 312, (3R)-1-methyl-3-({2-[3-(trifluoromethoxy)phenyl][1,2,4]triazolo[1,5-c]quinazolin-5-yl}amino)pyrrolidin-2-one]
1.06e-07 M	99.2 nM	NC(=O)[C@@H](CO)Nc1nc2ccccc2c2nc(-c3cccc(OC(F)(F)F)c3)nn12 [Example 313, N^2-{2-[3-(trifluoromethoxy)phenyl][1,2,4]triazolo[1,5-c]quinazolin-5-yl}-D-serinamide]
6.9e-09 M	0.922 nM	CC[C@@H](Nc1nc2ccccc2c2nc(-c3cccc(OC(F)(F)F)c3)nn12)C(N)=O [Example 314, (2R)-2-({2-[3-(trifluoromethoxy)phenyl][1,2,4]triazolo[1,5-c]quinazolin-5-yl}amino)butanamide]
2.06e-07 M	50.8 nM	O=C1NCCCC[C@@H]1Nc1nc2ccccc2c2nc(-c3cccc(OC(F)(F)F)c3)nn12 [Example 315, (3S)-3-({2-[3-(trifluoromethoxy)phenyl][1,2,4]triazolo[1,5-c]quinazolin-5-yl}amino)azepan-2-one]
1.29e-08 M	0.603 nM	CCNC(=O)C(CC)Nc1nc2ccccc2c2nc(-c3cccc(OC(F)(F)F)c3)nn12 (stereo not shown) [Example 318, N-ethyl-2-({2-[3-(trifluoromethoxy)phenyl][1,2J4]triazolo[1,5-c]quinazolin-5-yl}amino)butanamide]
2.06e-08 M	12.4 nM	CCCNC(=O)[C@@H](C)Nc1nc2ccccc2c2nc(-c3cccc(OC(F)(F)F)c3)nn12 [Example 321, N-propyl-N2-{2-[3-(trifluoromethoxy)phenyl][1,2,4]triazolo[1,5-c]quinazolin-5-yl}-D-alaninamide]
2.74e-08 M	28 nM	COc1cscc1-c1nc2c3ccccc3nc(N[C@@H]3CCCCNC3=O)n2n1 [Example 333, (3R)-3-{[2-(4-Methoxythiophen-3-yl)[1,2,4]triazolo[1,5-c]quinazolin-5-yl]amino}azepan-2-one]
8.51e-06 M	434 nM	COc1cscc1-c1nc2c3ccccc3nc(N[C@H]3CCCCNC3=O)n2n1 [Example 336, (3S)-3-{[2-(4-methoxythiophen-3-yl)[1,2,4]triazolo[1,5-c]quinazolin-5-yl]amino}azepan-2-one]
7.33e-10 M	0.517 nM	O=C1NCCCC[C@H]1Nc1nc2ccccc2c2nc(-c3ccsc3)nn12 [Example 340, (3R)-3-{[2-(thiophen-3-yl)[1,2,4]triazolo[1,5-c]quinazolin-5-yl]amino}azepan-2-one]
1.18e-07 M	17.7 nM	O=C1NCCCC[C@@H]1Nc1nc2ccccc2c2nc(-c3ccsc3)nn12 [Example 341]
6.67e-08 M	178 nM	O=C1NCCC[C@H]1Nc1nc2ccccc2c2nc(-c3ccsc3)nn12 [Example 343, (3R)-3-{[2-(thiophen-3-yl)[1,2,4]triazolo[1,5-c]quinazolin-5-yl]amino}piperidin-2-one]
1.17e-07 M	4.28 nM	Cc1sccc1-c1nc2c3ccccc3nc(N[C@H]3CCCCNC3=O)n2n1 [Example 347]
